Measurements as given in patent publication US11648289B2, “Antibacterial method” (priority 2016, dated 2023).
No end group written: not given here.

How the values were obtained:
[1] = test system: Listeria monocytogenes LMGT 2651
Procedure: (§1) Bacterial strains, growth conditions, bacteriocins and antimicrobial assays. All the strains (see below) used in minimal inhibitory concentration (MIC) assays (Varahan et al., 2014, M. Bio. 5:e01726-01714) were grown in BHI medium (Oxoid) at 30° C. without shaking. A collection of E. faecium strains isolated from blood in patients from different European hospitals was received from Department of Medical Microbiology, University Medical Center Utrecht, the Netherlands. […] Synthesized peptides were solubilized to concentrations of 10.0-0.1 mg/ml in 0.1% (vol/vol) trifluoroacetic acid and stored at −20° C. until use. […] Bacteriocin activity was determined by microtiter plate assay as previously described (Holo et al., 1991, J. Bacteriol., 173:3879-3887). The MIC was defined as the minimal bacteriocin concentration that inhibited the growth of the indicator strain by at least 50% (50% of the turbidity of the control culture without bacteriocin) in 200 μl culture. CD Spectroscopy Circular dichroism (CD) spectra were recorded using a Jasco J-810 spectropolarimeter (Jasco International Co) calibrated with D-camphor-10-sulfonate (Icatayama Chemical). All measurements were made using a quartz cuvette (Sterna) with 0.1 cm path length. Samples were scanned five times with a scanning rate of 50 nm/min with a bandwidth of 0.5 nm and response time of 1 s over the wavelength range 190-250 nm. Spectra were recorded at different (30 and 50%) trifluoroethanol (TFE) (Aldridge) concentrations at 25° C. The approximate α-helical content of the protein was estimated from its molar ellipticity at 222 nm (Scholtz et al., 1991, Biopolymers 31:1463-1470). NMR Spectroscopy The experiments were run on a sample containing 1.0 mM EntK1, 50% D3-TFE (99.5% D) (Aldrich), Milli-Q water and 0.2 mM of 4,4-dimethyl-4-silapentane-1-sulfonic acid (DSS) (Larodan). 2D NOESY (Jeener et al., 1979, J. Magn. Reson., 71:4546-4553), 2D TOCSY (Braunschweiler and Ernst, 1983, J. Magn. Reson., 53:521-528), 2D DQCOSY, ^15N-HSQC (Davis et al., 1992, J. Magn. Reson., 98:207-216) and ^13C-HSQC (Hurd, 1991, J. Magn. Reson., 91:648-653) were recorded. The data was acquired on a 600 MHz Bruker Avance II spectrometer with four channels and a 5 mm TCI cryoprobe (Bruker Biospin). NOESY spectra with mixing times between 120 ms and 300 ms were obtained for both samples. TOCSY mixing times of 15-80 ms were used. The experiments were run at 298.15 K. Spectra were processed using the Topspin program (Bruker Biospin). 4,4-dimethyl-4-silapentane-1-sulfonic acid (DSS) was used as a chemical shift standard, and ^15N and ^13C data were referenced using frequency ratios as described in (Wishart et al., 1995, J. Biomol. NMR., 6:135-140). For visualization, assignment and integration of the spectra the computer program CARA was used (Keller, 2004, The Computer Aided Resonance Assignment Tutorial. CANTINA Verlag, Goldau, Switzerland). The spectra were assigned using standard methods. Dihedral angle restraints were obtained from the chemical shift values using the program TALOS-N(Shen and Bax, 2013, J. Biomol. NMR, 56:227-241). Nuclear Overhauser effect (NOE) distance restraints were calculated from the peak volumes in the NOESY spectra with NOESY mixing time of 200 ms. All structure calculations were made using the structure calculation program CYANA 2.1 (Guntert et al., 1997, J. Mol. Biol., 273:283-298; Herrmann et al., 2002, J. Mol. Biol., 319:209-227). The annealing macro in CYANA calculated 100 structures. The 20 structures with the lowest energy were kept and analyzed further. The root-mean-square deviation (RMSD) was calculated and the structures were visualized using MolMol (Koradi et al., 1996, J. Mol. Graph., 14:51-55, 29-32). Generation of bacteriocin resistant mutants of E. faecalis and E. faecium.

[2] = test system: Bacillus cereus LMGT 2805
Procedure: as §1

[3] = test system: Enterococcus. faecalis LMGT 3199
Procedure: as §1

[4] = test system: E. faecium LMGT 3313
Procedure: as §1

[5] = test system: S. aureus LMGT 3258
Procedure: as §1

[6] = test system: E. faecium LMGT 3104
Procedure: as §1

[7] = test system: B. cercus LMGT 2711
Procedure: as §1

[8] = test system: S. pneumoniae ds220 induced; conditions: ds220 induced with ComS (2 μM), WT rseP
Procedure: as §1

[9] = test system: L. cremoris LMGT 2057
Procedure: as §1

[10] = test system: E. hirae LMGT 3236
Procedure: as §1

[11] = test system: S. epidermidis LMGT 3026
Procedure: as §1

[12] = test system: S. pneumoniae ds220 non-induced; conditions: WT rseP
Procedure: as §1

[13] = test system: L. lactis LMGT 2084
Procedure: as §1

[14] = test system: S. pneumoniae ms3; conditions: ms3, rseP H22>A, induced with ComS (2 μM)
Procedure: as §1

[15] = test system: E. faecalis LMGT 3200
Procedure: as §1

[16] = test system: E. faecalis LMGT 3358
Procedure: as §1

[17] = test system: L. lactis LMGT 2095
Procedure: as §1

[18] = test system: E. faecium LMGT 3193
Procedure: as §1

[19] = test system: S. aureus LMGT 3260
Procedure: as §1

[20] = test system: E. faecalis LMGT 3330
Procedure: as §1

[21] = test system: S. aureus LMGT 3272
Procedure: as §1

[22] = test system: S. pneumoniae ms5; conditions: for MIC: ms5, rseP HExxH>AAxxA, induced with ComS (2 μM)
Procedure: as §1

Sequence: MLAKIKAMIKKFPNPYTLAAKLTTYEINWYKQQYGRYPWERPVA [EntEJ97]
- MIC 50 [1]: 2.3 µM
- MIC 50 [2]: >4.7 µM
- MIC 50 [3]: 0.145 µM
- MIC 50 [4]: 0.145 µM
- MIC 50 [5]: >4.7 µM
- MIC 50 [6]: 0.145 µM
- MIC 50 [7]: >4.7 µM
- MIC [8]: 0.018 µM
- MIC 50 [9]: 0.145 µM
- MIC 50 [10]: 0.075 µM
- MIC 50 [11]: >4.7 µM
- MIC [12]: >4.5 µM
- MIC 50 [13]: 0.295 µM
- MIC [14]: 0.3 µM
- MIC 50 [15]: 0.295 µM
- MIC 50 [16]: 0.075 µM
- MIC 50 [17]: 0.145 µM
- MIC 50 [18]: 0.145 µM
- MIC 50 [19]: 2.3 µM
- MIC 50 [20]: 0.145 µM
- MIC 50 [21]: 1.175 µM
- times more resistant than the WT ([22]; all three conserved RseP residues replaced with alanines): 30 times
- MIC [22]: 0.6 µM

Sequence: MKFKFNPTGTIVKKLTQYEIAWFKNKHGYYPWEIPRC [EntK1]
- MIC 50 [1]: >5.5 µM
- MIC 50 [2]: >5.5 µM
- MIC 50 [3]: 5.5 µM
- MIC 50 [4]: 0.085 µM
- MIC 50 [5]: >5.5 µM
- MIC 50 [6]: 0.01 µM
- MIC 50 [7]: 2.75 µM
- MIC [8]: 0.7 µM
- MIC 50 [9]: >5.5 µM
- MIC 50 [10]: 0.045 µM
- MIC 50 [11]: >5.5 µM
- MIC [12]: >5.5 µM
- MIC 50 [13]: >5.5 µM
- MIC [14]: >5.5 µM
- MIC 50 [15]: >5.5 µM
- MIC 50 [16]: 2.7 µM
- MIC 50 [17]: >5.5 µM
- MIC 50 [18]: 0.085 µM
- MIC 50 [19]: >5.5 µM
- MIC 50 [20]: >5.5 µM
- MIC 50 [21]: >5.5 µM
- MIC [22]: >5.5 µM

Sequence: MKTILRFVAGYDIASHKKKTGGYPWERGKA [LsbB, reference compound]
- MIC 50 [1]: >7 µM
- MIC 50 [2]: >7 µM
- MIC 50 [3]: >7 µM
- MIC 50 [4]: >7 µM
- MIC 50 [5]: >7 µM
- MIC 50 [6]: >7 µM
- MIC 50 [7]: >7 µM
- MIC [8]: >7 µM
- MIC 50 [9]: >7 µM
- MIC 50 [10]: >7 µM
- MIC 50 [11]: >7 µM
- MIC [12]: >7 µM
- MIC 50 [13]: >7 µM
- MIC [14]: >7 µM
- MIC 50 [15]: >7 µM
- MIC 50 [16]: >7 µM
- MIC 50 [17]: >7 µM
- MIC 50 [18]: >7 µM
- MIC 50 [19]: >7 µM
- MIC 50 [20]: >7 µM
- MIC 50 [21]: >7 µM
- MIC [22]: >7 µM
